ChEMBL document CHEMBL4507269, “Data for DCP probe BAY-386” (2021)

How the values were obtained:
[1] = biological target: T1, Adenosine receptor A2b (Homo sapiens) (UniProt P29275); assay: A2B (h) Eurofins-Cerep Cellular and Nuclear Receptor Functional Assays; details: Compound concentration 10.0 uM
T1 sequence (whole entry): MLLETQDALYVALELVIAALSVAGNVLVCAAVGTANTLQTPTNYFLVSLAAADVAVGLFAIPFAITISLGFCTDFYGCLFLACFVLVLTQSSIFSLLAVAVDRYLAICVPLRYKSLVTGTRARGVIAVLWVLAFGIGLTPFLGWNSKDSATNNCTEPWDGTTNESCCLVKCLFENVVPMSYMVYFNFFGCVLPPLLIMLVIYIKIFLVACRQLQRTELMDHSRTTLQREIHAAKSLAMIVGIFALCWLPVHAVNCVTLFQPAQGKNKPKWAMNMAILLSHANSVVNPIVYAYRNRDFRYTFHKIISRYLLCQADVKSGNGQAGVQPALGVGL

[2] = biological target: 5-hydroxytryptamine receptor 6 (Homo sapiens) (UniProt P50406); assay: 5-HT6 (h) Eurofins-Cerep Cellular and Nuclear Receptor Functional Assays; details: Compound concentration 10.0 uM
[3] = biological target: Calcium/calmodulin-dependent protein kinase type 1 (Homo sapiens) (UniProt Q14012); details: Compound concentration 1000.0 nM
[4] = biological target: Cyclin-dependent kinase 2 (Homo sapiens) (UniProt P24941); details: Compound concentration 1000.0 nM
[5] = biological target: Tyrosine-protein kinase CSK (Homo sapiens) (UniProt P41240); details: Compound concentration 1000.0 nM
[6] = biological target: Casein kinase II subunit alpha (Homo sapiens) (UniProt P68400); details: Compound concentration 1000.0 nM
[7] = test system: Epidermal growth factor receptor (Homo sapiens), P00533 [UNDEFINED MUTATION]; details: Compound concentration 1000.0 nM
[8] = biological target: Ephrin type-B receptor 6 (Homo sapiens) (UniProt O15197); details: Compound concentration 1000.0 nM
[9] = biological target: Fibroblast growth factor receptor 4 (Homo sapiens) (UniProt P22455); details: Compound concentration 1000.0 nM
[10] = test system: Receptor-type tyrosine-protein kinase FLT3 (Homo sapiens), P36888 [UNDEFINED MUTATION]; details: Compound concentration 1000.0 nM
[11] = test system: Receptor-type tyrosine-protein kinase FLT3 (Homo sapiens), P36888 [UNDEFINED MUTATION]; details: Compound concentration 1000.0 nM; remark: listed apart in the source
[12] = biological target: Beta-adrenergic receptor kinase 1 (Homo sapiens) (UniProt P25098); details: Compound concentration 1000.0 nM
[13] = biological target: Mast/stem cell growth factor receptor Kit (Homo sapiens) (UniProt P10721); details: Compound concentration 1000.0 nM
[14] = biological target: Tyrosine-protein kinase Lck (Homo sapiens) (UniProt P06239); details: Compound concentration 1000.0 nM
[15] = biological target: Mitogen-activated protein kinase kinase kinase 15 (Homo sapiens) (UniProt Q6ZN16); details: Compound concentration 1000.0 nM
[16] = biological target: Mitogen-activated protein kinase kinase kinase 3 (Homo sapiens) (UniProt Q99759); details: Compound concentration 1000.0 nM
[17] = biological target: Mitogen-activated protein kinase kinase kinase 4 (Homo sapiens) (UniProt Q9Y6R4); details: Compound concentration 1000.0 nM
[18] = biological target: Dual specificity mitogen-activated protein kinase kinase 6 (Homo sapiens) (UniProt P52564); details: Compound concentration 1000.0 nM
[19] = biological target: Macrophage-stimulating protein receptor (Homo sapiens) (UniProt Q04912); details: Compound concentration 1000.0 nM
[20] = biological target: Muscle, skeletal receptor tyrosine-protein kinase (Homo sapiens) (UniProt O15146); details: Compound concentration 1000.0 nM
[21] = biological target: Myosin light chain kinase, smooth muscle (Homo sapiens) (UniProt Q15746); details: Compound concentration 1000.0 nM
[22] = biological target: Calcium-dependent protein kinase 1 (Plasmodium falciparum) (UniProt P62344); details: Compound concentration 1000.0 nM
[23] = biological target: Serine/threonine-protein kinase pim-1 (Homo sapiens) (UniProt P11309); details: Compound concentration 1000.0 nM
[24] = biological target: cAMP-dependent protein kinase catalytic subunit beta (Homo sapiens) (UniProt P22694); details: Compound concentration 1000.0 nM
[25] = biological target: Proto-oncogene tyrosine-protein kinase ROS (Homo sapiens) (UniProt P08922); details: Compound concentration 1000.0 nM
[26] = biological target: Ribosomal protein S6 kinase alpha-2 (Homo sapiens) (UniProt Q15349); details: Compound concentration 1000.0 nM
[27] = biological target: Ribosomal protein S6 kinase alpha-2 (Homo sapiens) (UniProt Q15349); details: Compound concentration 1000.0 nM; remark: listed apart in the source
[28] = biological target: Serine/threonine-protein kinase Sgk1 (Homo sapiens) (UniProt O00141); details: Compound concentration 1000.0 nM
[29] = biological target: Angiopoietin-1 receptor (Homo sapiens) (UniProt Q02763); details: Compound concentration 1000.0 nM
[30] = biological target: Tyrosine-protein kinase Yes (Homo sapiens) (UniProt P07947); details: Compound concentration 1000.0 nM
[31] = biological target: Sodium-dependent dopamine transporter (Homo sapiens) (UniProt Q01959); details: Compound concentration 10.0 uM
[32] = biological target: Delta-type opioid receptor (Homo sapiens) (UniProt P41143); details: Compound concentration 10.0 uM
[33] = biological target: Alpha-1B adrenergic receptor (Homo sapiens) (UniProt P35368); details: Compound concentration 10.0 uM
[34] = biological target: T2, Muscarinic acetylcholine receptor M2 (Homo sapiens) (UniProt P08172); details: Compound concentration 10.0 uM
T2 sequence (whole entry): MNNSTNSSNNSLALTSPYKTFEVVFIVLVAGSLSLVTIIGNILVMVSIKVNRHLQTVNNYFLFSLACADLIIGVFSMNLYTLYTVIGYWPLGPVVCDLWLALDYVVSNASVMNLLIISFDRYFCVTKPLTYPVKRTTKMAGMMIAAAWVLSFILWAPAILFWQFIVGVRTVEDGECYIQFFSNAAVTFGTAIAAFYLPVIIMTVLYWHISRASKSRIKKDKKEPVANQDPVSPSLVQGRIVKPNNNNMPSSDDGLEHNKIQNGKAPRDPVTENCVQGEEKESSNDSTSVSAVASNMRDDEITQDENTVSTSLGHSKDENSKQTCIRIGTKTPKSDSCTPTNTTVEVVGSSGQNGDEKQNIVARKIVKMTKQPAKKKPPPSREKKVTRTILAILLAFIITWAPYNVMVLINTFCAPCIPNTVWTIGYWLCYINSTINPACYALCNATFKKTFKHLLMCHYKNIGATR

Ribosomal protein S6 kinase alpha-2 (Homo sapiens), sequence (Q15349 whole entry): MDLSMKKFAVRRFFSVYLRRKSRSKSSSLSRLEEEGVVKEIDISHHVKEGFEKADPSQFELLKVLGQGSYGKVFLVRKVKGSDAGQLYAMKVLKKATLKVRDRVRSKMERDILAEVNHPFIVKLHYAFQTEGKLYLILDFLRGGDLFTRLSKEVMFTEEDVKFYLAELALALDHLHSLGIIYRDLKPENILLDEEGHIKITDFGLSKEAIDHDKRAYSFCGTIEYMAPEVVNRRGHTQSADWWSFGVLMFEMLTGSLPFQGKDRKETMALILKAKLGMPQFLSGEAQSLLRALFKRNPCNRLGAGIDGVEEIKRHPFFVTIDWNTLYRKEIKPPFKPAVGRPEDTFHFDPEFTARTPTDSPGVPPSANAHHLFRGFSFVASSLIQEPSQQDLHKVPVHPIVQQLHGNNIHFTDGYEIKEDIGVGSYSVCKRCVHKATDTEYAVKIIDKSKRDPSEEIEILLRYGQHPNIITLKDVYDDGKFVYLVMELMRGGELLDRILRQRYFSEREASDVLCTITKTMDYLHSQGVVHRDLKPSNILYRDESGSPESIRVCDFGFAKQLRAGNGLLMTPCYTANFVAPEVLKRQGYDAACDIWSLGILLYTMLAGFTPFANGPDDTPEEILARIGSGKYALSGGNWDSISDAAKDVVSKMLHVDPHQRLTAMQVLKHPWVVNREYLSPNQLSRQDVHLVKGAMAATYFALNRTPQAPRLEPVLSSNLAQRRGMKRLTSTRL
Receptor-type tyrosine-protein kinase FLT3 (Homo sapiens), P36888 [UNDEFINED MUTATION], sequence (P36888 whole entry, looked up, change not shown): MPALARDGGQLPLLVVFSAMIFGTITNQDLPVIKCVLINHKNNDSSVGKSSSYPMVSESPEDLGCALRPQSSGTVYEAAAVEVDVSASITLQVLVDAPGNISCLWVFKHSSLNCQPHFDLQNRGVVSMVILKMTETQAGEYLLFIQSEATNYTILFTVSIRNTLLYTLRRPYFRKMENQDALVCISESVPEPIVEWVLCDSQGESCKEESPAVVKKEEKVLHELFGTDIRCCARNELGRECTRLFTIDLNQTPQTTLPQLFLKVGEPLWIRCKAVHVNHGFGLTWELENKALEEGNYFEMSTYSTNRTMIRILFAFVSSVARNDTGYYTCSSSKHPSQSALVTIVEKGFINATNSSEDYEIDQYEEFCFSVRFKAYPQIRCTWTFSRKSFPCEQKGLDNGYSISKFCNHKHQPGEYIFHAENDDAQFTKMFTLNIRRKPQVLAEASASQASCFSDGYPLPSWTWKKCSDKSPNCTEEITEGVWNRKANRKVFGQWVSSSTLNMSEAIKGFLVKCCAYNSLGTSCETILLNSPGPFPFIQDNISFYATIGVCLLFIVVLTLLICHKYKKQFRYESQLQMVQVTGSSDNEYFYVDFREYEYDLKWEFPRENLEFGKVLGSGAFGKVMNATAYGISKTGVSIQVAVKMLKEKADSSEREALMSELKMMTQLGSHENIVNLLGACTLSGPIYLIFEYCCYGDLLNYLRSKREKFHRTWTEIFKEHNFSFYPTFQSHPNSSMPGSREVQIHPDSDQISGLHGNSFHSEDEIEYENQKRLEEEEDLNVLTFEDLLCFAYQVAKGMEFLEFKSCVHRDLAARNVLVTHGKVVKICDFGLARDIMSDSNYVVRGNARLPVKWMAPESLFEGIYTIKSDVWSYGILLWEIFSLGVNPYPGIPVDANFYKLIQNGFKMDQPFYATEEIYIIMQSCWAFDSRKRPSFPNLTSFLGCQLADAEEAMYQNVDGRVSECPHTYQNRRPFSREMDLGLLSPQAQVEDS
5-hydroxytryptamine receptor 6 (Homo sapiens), sequence (P50406 whole entry): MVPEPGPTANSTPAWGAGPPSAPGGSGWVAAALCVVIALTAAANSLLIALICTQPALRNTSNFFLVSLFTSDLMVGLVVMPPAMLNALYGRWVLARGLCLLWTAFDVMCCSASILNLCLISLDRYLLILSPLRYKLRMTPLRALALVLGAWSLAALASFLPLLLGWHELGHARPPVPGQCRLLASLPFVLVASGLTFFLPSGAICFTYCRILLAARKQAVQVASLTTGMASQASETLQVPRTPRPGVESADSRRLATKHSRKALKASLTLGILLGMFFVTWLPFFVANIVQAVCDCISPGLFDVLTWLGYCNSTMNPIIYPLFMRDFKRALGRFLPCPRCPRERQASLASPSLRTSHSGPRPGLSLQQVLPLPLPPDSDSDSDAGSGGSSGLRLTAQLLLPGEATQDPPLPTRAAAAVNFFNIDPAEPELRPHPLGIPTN
Casein kinase II subunit alpha (Homo sapiens), sequence (P68400 whole entry, looked up): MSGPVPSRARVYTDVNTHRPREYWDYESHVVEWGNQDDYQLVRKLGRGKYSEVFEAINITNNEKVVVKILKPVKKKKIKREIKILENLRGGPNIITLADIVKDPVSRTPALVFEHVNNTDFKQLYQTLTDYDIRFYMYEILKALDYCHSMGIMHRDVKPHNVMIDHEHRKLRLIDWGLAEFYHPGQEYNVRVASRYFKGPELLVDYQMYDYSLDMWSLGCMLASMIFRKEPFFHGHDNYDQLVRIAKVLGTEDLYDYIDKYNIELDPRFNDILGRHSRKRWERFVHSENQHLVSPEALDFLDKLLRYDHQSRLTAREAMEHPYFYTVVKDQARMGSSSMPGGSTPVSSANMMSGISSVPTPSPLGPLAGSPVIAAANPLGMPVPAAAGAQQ
Angiopoietin-1 receptor (Homo sapiens), sequence (Q02763 whole entry): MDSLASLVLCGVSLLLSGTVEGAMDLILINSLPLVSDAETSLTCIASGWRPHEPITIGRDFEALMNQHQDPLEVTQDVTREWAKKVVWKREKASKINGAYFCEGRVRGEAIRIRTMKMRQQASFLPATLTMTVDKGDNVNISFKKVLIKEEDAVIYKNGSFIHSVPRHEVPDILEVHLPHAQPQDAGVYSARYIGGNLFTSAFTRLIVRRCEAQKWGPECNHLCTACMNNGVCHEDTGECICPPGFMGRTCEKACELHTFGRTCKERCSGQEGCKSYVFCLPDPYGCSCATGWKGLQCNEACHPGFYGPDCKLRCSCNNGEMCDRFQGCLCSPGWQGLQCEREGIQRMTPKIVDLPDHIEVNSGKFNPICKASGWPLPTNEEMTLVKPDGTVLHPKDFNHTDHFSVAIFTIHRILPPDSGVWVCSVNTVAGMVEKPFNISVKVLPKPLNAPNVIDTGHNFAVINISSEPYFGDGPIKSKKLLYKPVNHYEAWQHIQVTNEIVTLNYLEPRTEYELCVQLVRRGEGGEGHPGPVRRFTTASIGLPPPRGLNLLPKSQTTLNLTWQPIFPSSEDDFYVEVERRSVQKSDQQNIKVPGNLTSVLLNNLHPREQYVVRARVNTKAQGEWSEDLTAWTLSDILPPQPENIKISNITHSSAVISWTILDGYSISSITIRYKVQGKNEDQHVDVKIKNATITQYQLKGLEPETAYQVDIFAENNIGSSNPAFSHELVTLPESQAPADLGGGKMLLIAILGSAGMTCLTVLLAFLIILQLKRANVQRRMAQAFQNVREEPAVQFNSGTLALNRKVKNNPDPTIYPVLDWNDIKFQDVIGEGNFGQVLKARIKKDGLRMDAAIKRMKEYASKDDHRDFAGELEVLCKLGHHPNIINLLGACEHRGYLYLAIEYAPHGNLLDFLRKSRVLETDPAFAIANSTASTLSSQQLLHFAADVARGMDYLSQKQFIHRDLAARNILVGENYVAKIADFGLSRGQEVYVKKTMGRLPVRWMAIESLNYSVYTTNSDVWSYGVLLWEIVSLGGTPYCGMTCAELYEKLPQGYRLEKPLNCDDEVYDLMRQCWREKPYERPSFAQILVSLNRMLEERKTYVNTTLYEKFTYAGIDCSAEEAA
Fibroblast growth factor receptor 4 (Homo sapiens), sequence (P22455 22-802 limits assumed): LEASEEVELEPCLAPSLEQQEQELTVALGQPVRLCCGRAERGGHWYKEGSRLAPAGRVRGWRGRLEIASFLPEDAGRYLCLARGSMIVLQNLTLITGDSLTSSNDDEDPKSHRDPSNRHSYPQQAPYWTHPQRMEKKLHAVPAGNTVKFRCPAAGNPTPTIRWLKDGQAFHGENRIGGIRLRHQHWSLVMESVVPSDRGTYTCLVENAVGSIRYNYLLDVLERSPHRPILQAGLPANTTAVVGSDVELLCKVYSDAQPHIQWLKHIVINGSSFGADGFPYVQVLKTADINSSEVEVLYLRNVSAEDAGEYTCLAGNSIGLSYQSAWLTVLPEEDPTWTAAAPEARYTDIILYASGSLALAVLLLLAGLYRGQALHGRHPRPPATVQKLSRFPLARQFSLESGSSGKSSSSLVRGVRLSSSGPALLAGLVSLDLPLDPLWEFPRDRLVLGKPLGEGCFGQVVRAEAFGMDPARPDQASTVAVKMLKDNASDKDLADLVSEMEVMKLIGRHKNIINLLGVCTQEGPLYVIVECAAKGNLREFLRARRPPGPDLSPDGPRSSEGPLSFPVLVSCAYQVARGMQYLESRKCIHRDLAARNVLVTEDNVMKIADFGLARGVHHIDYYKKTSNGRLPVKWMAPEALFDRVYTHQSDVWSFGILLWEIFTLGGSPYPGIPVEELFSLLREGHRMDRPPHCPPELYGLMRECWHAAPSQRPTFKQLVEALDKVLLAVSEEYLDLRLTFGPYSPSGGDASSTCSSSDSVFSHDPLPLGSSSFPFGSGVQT
Serine/threonine-protein kinase pim-1 (Homo sapiens), sequence (P11309 whole entry, looked up): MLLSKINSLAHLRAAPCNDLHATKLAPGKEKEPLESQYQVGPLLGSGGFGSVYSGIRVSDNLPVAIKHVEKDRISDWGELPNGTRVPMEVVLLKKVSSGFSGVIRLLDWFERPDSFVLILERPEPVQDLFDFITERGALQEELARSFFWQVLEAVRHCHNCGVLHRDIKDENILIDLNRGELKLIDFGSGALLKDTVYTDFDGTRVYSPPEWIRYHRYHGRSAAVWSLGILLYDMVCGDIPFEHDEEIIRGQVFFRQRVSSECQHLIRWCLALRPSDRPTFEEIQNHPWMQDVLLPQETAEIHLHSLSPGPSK

Row | SMILES | % Inhibition of Control Agonist Response (Mean n=2) [1] [%] | % of Control Agonist Response (Mean n=2) [1] [%] | % Inhibition of Control Agonist Response (Mean n=2) [2] [%] | % of Control Agonist Response (Mean n=2) [2] [%] | residual activity [3] [%] | residual activity [4] [%] | residual activity [5] [%] | residual activity [6] [%] | residual activity [7] [%] | residual activity [8] [%] | residual activity [9] [%] | residual activity [10] [%] | residual activity [11] [%] | residual activity [12] [%] | residual activity [13] [%] | residual activity [14] [%] | residual activity [15] [%] | residual activity [16] [%] | residual activity [17] [%] | residual activity [18] [%] | also measured
1 | O=C(N1CCS(=O)(=O)CC1)N1C[C@H](c2ccc(OC(F)(F)F)cc2)C[C@H](c2nc(C3CC3)no2)C1 [BAY-386] | -0.3 | 3.5 | 21.1 | 2.8 | 100 | 100 | 100 | 100 | 100 | 100 | 100 | 100 | 100 | 66 | 100 | 100 | 100 | 100 | 83 | 100 | residual activity [19]: 100%; residual activity [20]: 100%; residual activity [21]: 100%; residual activity [22]: 92%; residual activity [23]: 100%; residual activity [24]: 100%; residual activity [25]: 100%; residual activity [26]: 100%; residual activity [27]: 100%; residual activity [28]: 91%; residual activity [29]: 100%; residual activity [30]: 96%; inhibition [31]: 0.01%; inhibition [32]: -2.63%; inhibition [33]: 14.2%; inhibition [34]: -9.14%
2 | Cc1noc([C@H]2C[C@@H](c3ccc(C(F)(F)F)cc3)CN(C(=O)N3CCS(=O)(=O)C3)C2)n1 [BAY-448] | -8.5 | 1.5 | 2.1 | 1.4 | 100 | 100 | 100 | 86 | 78 | 73 | 100 | 100 | 89 | 83 | 100 | 100 | 100 | 84 | 72 | 100 | residual activity [19]: 100%; residual activity [20]: 100%; residual activity [21]: 87%; residual activity [22]: 82%; residual activity [23]: 100%; residual activity [24]: 100%; residual activity [25]: 86%; residual activity [26]: 100%; residual activity [27]: 92%; residual activity [28]: 100%; residual activity [29]: 100%; residual activity [30]: 100%; inhibition [31]: 5.46%; inhibition [32]: -0.62%; inhibition [33]: -1.18%; inhibition [34]: 39.5%
